The numbers were not newly measured in patent US20150024025A1, “ALIGNED N[…] AXONAL RE[…] SPINAL CORD INJURY OR SURGERY” (THE UAB RESEARCH FOUNDATION, priority 2012, published 2015), which cites them from elsewhere.

For the series, the system named is spinal cord injury.

For chondroitinase ABC, the “axonal repair and regeneration in vivo after spinal cord injury” value was “promotes axonal repair and regeneration”.
